Source: patent publication US4971974A, “Benzothiophenes as appetite suppressants” (Neurex Corporation, priority 1988, dated 1990)

Key:
[1] = U.S. Pat. Nos. 3,636,218; 3,518,278; Miller et al; cited from earlier work
[2] = Food intake in food-deprived rats after ip injection (Example 1); assay type: in vivo; settings: for Post-Drug Food Intake, 0-1 hr / Post-Drug Food Intake, 1-2 hr / Post-Drug Food Intake, 2-6 hr / Post-Drug Food Intake, 6-8 hr / Post-Drug Food Intake, 8-24 hr / Cumulative Food Intake, 1 hr / Cumulative Food Intake, 2 hr / Cumulative Food Intake, 6 hr / Cumulative Food Intake, 8 hr / Cumulative Food Intake, 24 hr: mean ± SD; for Post-Drug Food Intake, 0-1 hr / Cumulative Food Intake, 1 hr: control 5.3 ± 1.3; for Post-Drug Food Intake, 1-2 hr: control 0.6 ± 0.7; for Post-Drug Food Intake, 2-6 hr: control 2.5 ± 1.6; for Post-Drug Food Intake, 6-8 hr: control 2.0 ± 1.0; for Post-Drug Food Intake, 8-24 hr: control 20.8 ± 1.7; for Cumulative Food Intake, 2 hr: control 5.9 ± 1.2; for Cumulative Food Intake, 6 hr: control 8.4 ± 0.9; for Cumulative Food Intake, 8 hr: control 10.4 ± 1.6; for Cumulative Food Intake, 24 hr: control 31.2 ± 2.1
Experimental: Forty-eight 70-to-80-day-old male rats (Bantin & Kingman, Fremont, Calif.) were housed singly in suspended cages, and were acclimated to the laboratory setting for a period of 12 days prior to testing. During this time, they were allowed ad libitum access to food (Ralston-Purina #5001M) and water. The room was kept at 24°-27° C. and maintained on a 12:12-hr light:dark schedule (0700-1900 h).
Animals matched by body weight and mean daily food intake were assigned to 4 groups (n=12/group). Food jars were removed at 0900 h. Twenty-four hours later, rats were injected with either sterile 0.9% saline or saline containing 1,2,3,4-tetrahydrobenzo[b]thieno[2,3-c]pyridine HCl (5, 10, or 25 mg/kg, ip). Pre-weighed food jars containing meal (Ralston-Purina #5001M) were presented immediately post-injection. These were weighed at intervals over the next 24 hours, and food consumption was calculated for each interval. Animals were provided with water in quantities sufficient for ad libitum consumption throughout the experiment.
To assess the duration of the drug-induced anorexia and rebound feeding behavior, food intake was measured at several time intervals after drug administration.

[3] = Alteration of macronutrient preference in rats, 75% or 25% carbohydrate test diets (Example 2); assay type: in vivo, rats (Sprague-Dawley); settings: rat; for cumulative amount of 25% Carbohydrate diet consumed, 1 hr / cumulative amount of 25% Carbohydrate diet consumed, 2 hr / cumulative amount of 75% Carbohydrate diet consumed, 1 hr / cumulative amount of 75% Carbohydrate diet consumed, 2 hr: mean±SEM; for cumulative amount of 25% Carbohydrate diet consumed, 1 hr: saline 6.4 ± 0.5; for cumulative amount of 25% Carbohydrate diet consumed, 2 hr: saline 7.5 ± 1.7; for cumulative amount of 75% Carbohydrate diet consumed, 1 hr: saline 6.6 ± 0.5; for cumulative amount of 75% Carbohydrate diet consumed, 1 hr / cumulative amount of 75% Carbohydrate diet consumed, 2 hr: significant p < 0.01; for cumulative amount of 75% Carbohydrate diet consumed, 2 hr: saline 8.4 ± 1.6
Experimental: Sixty adult male rats (Sprague-Dawley, 225-300 g) were acclimated to laboratory conditions for a period of 10 days, during which they were allowed unrestricted access to food (Ralston-Purina #5001M) and water. All subjects were housed in individual cages, and the animal facility was maintained on a 12:12 hour light:dark cycle at 24°-27° C.
Animals were assigned to 6 groups (10 per group), then allowed to consume, ad libitum, one of two iso-nitrogenous test diets containing either 75% or 25% carbohydrate. After 3 days, food jars were removed. After an additional 24 hours, rats were administered either saline or 1,2,3,4-tetrahydrobenzo[b]thieno[2,3-c]pyridine (1.5 or 3.0 mg/Kg body weight), then given immediate access to the test diets. Data listed in Table 3 indicate the cumulative amount in grams (mean±SEM) of each diet consumed by the experimental and control groups during the subsequent 2-hour period.

[4] = Acute toxicity studies in mice; settings: mouse, in vivo, ip, intraperitoneally
Experimental: In acute toxicity studies in mice, 1,2,3,4-tetrahydrobenzo[b]thieno[2,3-c]pyridine yields LD50 values in excess of 100 mg/kg when administered intraperitoneally and 100 mg/kg when administered by the oral route.

[5] = in vivo; cited from earlier work
[6] = rat, 5 mg/Kg ip, significant p < 0.02
[7] = rat, 10 mg/Kg ip, significant p < 0.02
[8] = rat, 25 mg/Kg ip, significant p < 0.05
[9] = rat, 25 mg/Kg ip, significant p < 0.02

c1ccc2c3c(sc2c1)CNCC3 [1,2,3,4-tetrahydrobenzo[b]thieno[2,3-c]pyridine]
central nervous system depression [1]: CNS depressants and tranquilizing agents | Post-Drug Food Intake, 0-1 hr ([2]; rat, 5 mg/Kg ip, significant p < 0.05): 1.3 ± 0.6 gm | Post-Drug Food Intake, 1-2 hr ([2]; rat, 5 mg/Kg ip): 1.2 ± 0.6 gm | Post-Drug Food Intake, 2-6 hr ([2]; rat, 5 mg/Kg ip): 4.9 ± 1.6 gm | Post-Drug Food Intake, 6-8 hr ([2]; rat, 5 mg/Kg ip): 1.8 ± 1.3 gm | Post-Drug Food Intake, 8-24 hr ([2]; rat, 5 mg/Kg ip): 18.2 ± 1.9 gm | Cumulative Food Intake, 1 hr [2, 6]: 1.3 ± 0.6 gm | Cumulative Food Intake, 2 hr [2, 6]: 2.5 ± 0.7 gm | Cumulative Food Intake, 6 hr ([2]; rat, 5 mg/Kg ip): 7.4 ± 1.6 gm | Cumulative Food Intake, 8 hr ([2]; rat, 5 mg/Kg ip): 9.2 ± 1.6 gm | Cumulative Food Intake, 24 hr ([2]; rat, 5 mg/Kg ip): 27.4 ± 2.8 gm | food consumption in rats ([2]; rat, 5 mg/kg intraperitoneally): significantly reduce food consumption in rats | Post-Drug Food Intake, 0-1 hr ([2]; rat, 10 mg/Kg ip, significant p < 0.05): 0.9 ± 0.9 gm | Post-Drug Food Intake, 1-2 hr ([2]; rat, 10 mg/Kg ip): 1.1 ± 0.8 gm | Post-Drug Food Intake, 2-6 hr ([2]; rat, 10 mg/Kg ip): 4.3 ± 1.8 gm | Post-Drug Food Intake, 6-8 hr ([2]; rat, 10 mg/Kg ip): 1.4 ± 0.6 gm | Post-Drug Food Intake, 8-24 hr ([2]; rat, 10 mg/Kg ip): 19.2 ± 2.8 gm | Cumulative Food Intake, 1 hr [2, 7]: 0.9 ± 0.9 gm | Cumulative Food Intake, 2 hr [2, 7]: 2.0 ± 1.1 gm | Cumulative Food Intake, 6 hr ([2]; rat, 10 mg/Kg ip): 6.3 ± 2.3 gm | Cumulative Food Intake, 8 hr ([2]; rat, 10 mg/Kg ip): 7.7 ± 2.5 gm | Cumulative Food Intake, 24 hr [2, 7]: 26.8 ± 2.8 gm | Post-Drug Food Intake, 0-1 hr [2, 8]: 0.1 ± 0.2 gm | Post-Drug Food Intake, 1-2 hr ([2]; rat, 25 mg/Kg ip): 0.1 ± 0.2 gm | Post-Drug Food Intake, 2-6 hr ([2]; rat, 25 mg/Kg ip): 2.1 ± 2.3 gm | Post-Drug Food Intake, 6-8 hr ([2]; rat, 25 mg/Kg ip): 0.9 ± 0.7 gm | Post-Drug Food Intake, 8-24 hr [2, 8]: 17.1 ± 2.1 gm | Cumulative Food Intake, 1 hr [2, 9]: 0.1 ± 0.2 gm | Cumulative Food Intake, 2 hr [2, 9]: 0.2 ± 0.3 gm | Cumulative Food Intake, 6 hr [2, 9]: 2.2 ± 2.4 gm | Cumulative Food Intake, 8 hr [2, 9]: 3.0 ± 2.6 gm | Cumulative Food Intake, 24 hr [2, 9]: 20.1 ± 2.6 gm | cumulative food intake at 24 hours vs controls ([2]; rat, 25 mg/kg ip, 24 hours): substantially lower cumulative food intake at 24 hours post-injection than controls | food consumption, dose relation ([2]; rat, 5, 10, 25 mg/kg ip): dose-related decrement in food consumption | rebound feeding in the 1-6 hr interval ([2]; rat, 5 and 10 mg/kg ip, not statistically significant): varying degrees of rebound feeding | food intake at 2 hours post-injection vs control ([2]; rat, all experimental groups (5, 10, 25 mg/kg ip), 2 hours): significantly lower than control values | food intake in the first hour after drug administration ([2]; rat, ip, first hour): highly significant fall in food intake | cumulative amount of 25% Carbohydrate diet consumed, 1 hr ([3]; 1.5 mg/Kg): 5.6 ± 0.3 grams | cumulative amount of 25% Carbohydrate diet consumed, 2 hr ([3]; 1.5 mg/Kg): 7.6 ± 1.0 grams | cumulative amount of 75% Carbohydrate diet consumed, 1 hr ([3]; 1.5 mg/Kg): 4.4 ± 0.2 grams | cumulative amount of 75% Carbohydrate diet consumed, 2 hr ([3]; 1.5 mg/Kg): 5.8 ± 0.8 grams | cumulative amount of 25% Carbohydrate diet consumed, 1 hr ([3]; 3.0 mg/Kg): 5.4 ± 0.3 grams | cumulative amount of 25% Carbohydrate diet consumed, 2 hr ([3]; 3.0 mg/Kg): 7.0 ± 1.1 grams | cumulative amount of 75% Carbohydrate diet consumed, 1 hr ([3]; 3.0 mg/Kg): 4.5 ± 0.2 grams | cumulative amount of 75% Carbohydrate diet consumed, 2 hr ([3]; 3.0 mg/Kg): 6.0 ± 1.3 grams | consumption of low carbohydrate diet vs controls ([3]; 1.5 or 3.0 mg/Kg, 25% carbohydrate): consumed equivalent quantities of the low carbohydrate diet | consumption of high carbohydrate diet vs controls ([3]; 1.5 or 3.0 mg/Kg, 75% carbohydrate): consumed significantly less of the high carbohydrate diet than did controls | LD50 [4]: > 100 mg/kg

O=C(NCCN1CCOCC1)c1sc2ccccc2c1Br [3-bromo-2-(N-morpholinoethyl)benzo[b]thiophene carboximide]
anticonvulsant properties [5]: anticonvulsant properties | antidepressant activity [5]: antidepressant activity
